Holding throughout (format): biochemical
Assay [1] addresses T1, acid β-D-glucosidase (Homo sapiens, UniProt P04062).
T1 sequence (P04062 40-536): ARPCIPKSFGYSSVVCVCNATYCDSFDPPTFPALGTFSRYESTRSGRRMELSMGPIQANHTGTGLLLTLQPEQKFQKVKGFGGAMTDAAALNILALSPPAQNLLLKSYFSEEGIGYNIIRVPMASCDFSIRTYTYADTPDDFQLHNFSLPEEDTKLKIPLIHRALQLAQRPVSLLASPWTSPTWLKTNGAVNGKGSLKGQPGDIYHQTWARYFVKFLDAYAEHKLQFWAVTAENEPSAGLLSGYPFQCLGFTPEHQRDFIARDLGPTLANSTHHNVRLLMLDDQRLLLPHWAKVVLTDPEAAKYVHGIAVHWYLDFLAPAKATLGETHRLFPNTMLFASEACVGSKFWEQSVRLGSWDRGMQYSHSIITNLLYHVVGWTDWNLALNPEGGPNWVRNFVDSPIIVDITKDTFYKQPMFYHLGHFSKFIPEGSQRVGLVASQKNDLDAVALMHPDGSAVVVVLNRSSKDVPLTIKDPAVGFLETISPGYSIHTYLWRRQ
As to the kind of experiment: Gaucher assay on bench, substrate hydrolysis with cyclodextrins, QC DBS extracts. Also noted: DBS extracts were prepared from quality control (QC) dried blood spot samples; tissue CDC, Atlanta Ga; host or cells: dried blood spot extracts (pooled cord blood / leukoreduced red cells plus serum). Conditions: for effect on fluorescence signal in the Gaucher assay, lower concentrations: 1, 5, 10, 15, 20, 25 mM, one experiment; for effect on hydrolysis of the 4-MU substrate in the Gaucher assay: 10, 30, 100 mM tested, effect at 10 mM, 20 hrs at 37° C. Here is the method: (§1) To evaluate the efficacy of cyclodextrins in enhancing the hydrolysis of enzymatic substrates (4-MU substrates) used in NBS assays, DBS extracts were prepared from quality control (QC) dried blood spot samples (i.e., base pool (BP), low (L), medium (M) and high (H) activity samples). The QC samples were obtained from CDC, Atlanta Ga. The base pool (BP) QC sample was prepared from a pool of leukoreduced human red blood cells that was adjusted with serum to a hematocrit of 50%. The High (H) activity QC sample was prepared from pooled cord blood that was adjusted with serum to a hematocrit of 50%. The medium (M) activity QC sample was prepared by using 50% base pool (BP) and 50% high (H) activity sample. The low (L) activity QC sample was prepared by using 95% base pool (BP) and 5% high (H) activity sample. The BP sample is used as a control for hydrolysis non-specific to white blood cell lysosomal enzymes. The DBS extracts were analyzed using on-bench assay protocols for Fabry, Gaucher, Krabbe, and Pompe diseases. For each assay, on-chip reagent formulations were scaled up to bench volumes. Hydroxypropyl-β-cyclodextrin or methyl-β-cyclodextrin reagent stocks (300 mM) were prepared in appropriate assay buffers. For each reaction, 10 μL of the appropriate substrate was mixed with 10 μL of DBS extract. After an incubation period (20 hrs at 37° C.), 50 μL of stop buffer (0.2 M NaCO3, pH 10.1) was added to the reaction. Fluorescence was read at 360/460 nm at a gain of 75. For each assay, QC samples (BP, L, M and H) were analyzed in duplicate.
FIGS. 21A and 21B show bar graphs 2100 and 2150 of the effect of hydroxypropyl-β-cyclodextrin and methyl-β-cyclodextrin, respectively, on substrate hydrolysis in a Gaucher assay. The 4-MU substrate in the Gaucher assay was β-D-glucopyranoside. The concentrations of β-cyclodextrins in the reaction mixture (substrate+DBS extract) were 10 mM, 30 mM, and 100 mM.
FIGS. 23A and 23B show bar graphs 2300 and 2350, respectively, of an experimental result of the effect of lower concentrations of hydroxypropyl-β-cyclodextrin and methyl-β-cyclodextrin, respectively, on substrate hydrolysis in a Gaucher assay. The 4-MU substrate in the Gaucher assay was β-D-glucopyranoside. The concentrations of β-cyclodextrins in the reaction mixture (substrate+DBS extract) were 1, 5, 10, 15, 20, and 25 mM. […] The β-cyclodextrin used may be hydroxypropyl-β-cyclodextrin at a concentration from about 5 mM to about 15 mM, or from about 7 mM to about 13 mM, or from about 9 mM to about 11 mM, or from about 9.5 mM to about 11.5 mM.

The target in assay [2] is T2, α-galactosidase (Homo sapiens, UniProt P06280).
T2 construct: DBS extracts were prepared from quality control (QC) dried blood spot samples; tissue CDC, Atlanta Ga; host or cells: dried blood spot extracts (pooled cord blood / leukoreduced red cells plus serum)
T2 sequence (P06280 32-429): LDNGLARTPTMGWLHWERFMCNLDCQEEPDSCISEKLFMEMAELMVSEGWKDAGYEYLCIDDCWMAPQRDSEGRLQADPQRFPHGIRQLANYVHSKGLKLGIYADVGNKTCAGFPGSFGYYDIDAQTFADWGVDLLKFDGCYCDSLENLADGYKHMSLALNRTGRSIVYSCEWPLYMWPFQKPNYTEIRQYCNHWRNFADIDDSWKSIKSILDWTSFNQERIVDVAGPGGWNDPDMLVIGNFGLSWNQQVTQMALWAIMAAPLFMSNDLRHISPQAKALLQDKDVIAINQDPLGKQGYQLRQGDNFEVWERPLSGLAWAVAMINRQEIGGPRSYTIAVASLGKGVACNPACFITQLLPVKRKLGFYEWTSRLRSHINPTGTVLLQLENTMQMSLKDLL
As to the kind of experiment: Fabry assay on bench, substrate hydrolysis with cyclodextrins, QC DBS extracts. Conditions: for effect on hydrolysis of the 4-MU substrate in the Fabry assay: 10, 30, 100 mM tested, effect at 10 mM. The protocol:
as §1
FIGS. 20A and 20B show bar graphs 2000 and 2050 of the effect of hydroxypropyl-β-cyclodextrin and methyl-β-cyclodextrin, respectively, on substrate hydrolysis in a Fabry assay. The 4-MU substrate in the Fabry assay was β-D-galactopyranoside. The concentrations of β-cyclodextrins in the reaction mixture (substrate+DBS extract) were 10 mM, 30 mM and 100 mM.
To further evaluate the efficacy of lower concentrations of cyclodextrins in enhancing the hydrolysis of 4-MU substrates, Fabry and Gaucher assays were repeated using cyclodextrins concentrations ranging from 1 mM to 25 mM. FIGS. 22A and 22B show bar graphs 2200 and 2250, respectively, of the effect of lower concentrations of hydroxypropyl-β-cyclodextrin and methyl-β-cyclodextrin, respectively, on substrate hydrolysis in a Fabry assay. The 4-MU substrate in the Fabry assay was β-D-galactopyranoside. The concentrations of β-cyclodextrins in the reaction mixture (substrate+DBS extract) were 1, 5, 10, 15, 20, and 25 mM. […] The preferred concentration of methyl-β-cyclodextrin is from about 1 mM to about 20 mM, or from about 5 mM to about 15 mM, or from about 7 mM to about 13 mM, or from about 9 mM to about 11 mM, or from about 9.5 mM to about 11.5 mM.

Assay [3] deals with T3, α-glucosidase (Homo sapiens, UniProt P10253).
T3 construct: DBS extracts were prepared from quality control (QC) dried blood spot samples; tissue CDC, Atlanta Ga; host or cells: dried blood spot extracts (pooled cord blood / leukoreduced red cells plus serum)
The assay is described as follows: Pompe assay on bench, substrate hydrolysis with cyclodextrins, QC DBS extracts. Conditions: data not shown. Here is the method: as §1, with “For each reaction, 10 μL of the appropriate substrate was mixed with 10 μL of DBS extract. After an incubation period (20 hrs at 37° C.), 50 μL of stop buffer (0.2 M NaCO3, pH 10.1) was added to the reaction.” left out, “duplicate. […]” for “duplicate.”

For the substance hydroxypropyl-β-cyclodextrin, in assay [1], the “effect on fluorescence signal in the Gaucher assay, lower concentrations” value is on record as “may affect the fluorescence signal” and the “effect on hydrolysis of the 4-MU substrate in the Gaucher assay” value is reported as “increase the hydrolysis”. Further, the “effect on substrate hydrolysis in a Fabry assay, lower concentrations” value in assay [2] (1, 5, 10, 15, 20, 25 mM) is listed as “less effective”. In assay [2] (20 hrs at 37° C.), the “effect on hydrolysis of the 4-MU substrate in the Fabry assay” value was “less effective”. Moreover, the “effect on substrate hydrolysis in a Pompe assay” value in assay [3] is given as “less effective”.

Consider methyl-β-cyclodextrin, for which, in assay [1], the “effect on fluorescence signal in the Gaucher assay, lower concentrations” value is on record as “may affect the fluorescence signal” and the “effect on hydrolysis of the 4-MU substrate in the Gaucher assay” value is on record as “increase the hydrolysis”. Further, the “increase of the QC-H signal in the Fabry assay” value in assay [2] (10 mM, 20 hrs at 37° C.) turned out to be 37%. Moreover, the “effect on hydrolysis of the 4-MU substrate in the Fabry assay” value in assay [2] (20 hrs at 37° C.) is given as “increase the hydrolysis”. Moreover, the “effect on substrate hydrolysis in a Pompe assay” value in assay [3] is reported as “less effective”.
